According to US6344324B2, “Quantification of cellular injury using expression of a fluorescent protein under the control of the GADD153 promoter” (Research Development Foundation, priority 2000, dated 2002):
Several values for one entry are separate records, joined by “and”; a condition that tells them apart may be missing. Equal entries are not always repeated. Where two headings read alike, the source gives them in different places. Starred links: 1 amine or outer side, 2 acyl side, 3 side chain; linkers in the order of their positions; H or OH if unused. Positions of bridges follow the written chain, without caps; N, C: chain ends. Non-standard residues stand in square brackets, D forms with d. Residues, ends and D or L forms follow the SMILES beside them. Chains are numbered I, II in the order given. Actinocin(9to1) = Cc1c2oc3c(C)ccc(C(=O)[*:1])c3nc-2c(C(=O)[*:2])c(N)c1=O; NMeV = CN[C@H](C(=O)O)C(C)C; Sar = CNCC(=O)O

Columns and labels:
[1] = tested on: GADD153 promoter activity in T10b45 cells
Description: T10b45 cells were harvested 4 days following exposure to the injurious agent, washed once and resuspended in PBS. Cytometric analysis was performed using a Becton Dickinson (Mountain View, Calif.) FACScan equipped with an argon ion laser tuned to 488 nm to excite EGFP, and a 515/545 bandpass filter to monitor the green fluorescence emitted by EGFP. The acquired data were analyzed with the CELLQuest program. Twenty thousand events were collected for each sample. An analytical gate was set such that less than 0.2% of the untreated cells exceeded the gate. The relative fold induction was calculated by dividing the percent of treated cells in the gated region by that of untreated cells harvested at same time.
Three hundred thousand T10b45 cells were seeded into 60 mm tissue culture dishes and treated 24 h later so that all experiments were performed with cells in the logarithmic phase of growth. The chemical agents were added directly to the tissue culture media. At the indicated times, the medium was removed and the cells were washed twice with serum-free medium and then incubated for 4 days in fresh drug-free medium at 37° C. following which they were subjected to flow cytometric analysis.

[2] = tested on: T10b45 cells; assay: Clonogenic (colony-forming) assay; format: cell-based, human
[3] = tested on: T10b45 xenografts; assay: EGFP expression in T10b45 xenografts in vivo; set-up: species or system BALB/c nu/nu mice; conditions: for tumor cells expressing EGFP: tumors harvested 4 days later, ± SD
[4] = in this strain (BALB/c nu/nu mice); cited from earlier work
[5] = tested on: GADD153 mRNA; conditions: UMSCC10b xenografts in nude mice, 50 mg/kg, 24 hr post-treatment, relative to untreated mice; ± SD; cited from earlier work
[6] = T10b45 cells, 4 days after the insult, conditions of maximal activation (Table 1)
[7] = colony-forming assay, 1 hour drug exposure, colonies scored after 14 days, mean ± SD, n = 3
[8] = quotient of fold increase in EGFP-expressing cells and Pt in DNA at 10 × IC50, mean ± SD, n = 3
[9] = 50 μM, 1 h exposure, GFP 4 days after treatment, relative to untreated control
[10] = 50 nM, 4 h exposure, GFP 4 days after treatment, relative to untreated control
[11] = 500 μM, 1 h exposure, GFP 4 days after treatment, relative to untreated control

For `O=c1[nH]cc(F)c(=O)[nH]1` [5-Fluorouracil], the “Induction Ratio” value ([1]; 50 μM, 4 h exposure, GFP 4 days after treatment, % GFP expressing cells relative to untreated control) was 3.0 and the “activation of EGFP expression (in words)” value [1, 6] was “relatively impotent”.
With `Cc1c2oc3c(C)ccc(C(=O)N[C@@H]4C(=O)N[C@H](C(C)C)C(=O)N5CCC[C@H]5C(=O)N(C)CC(=O)N(C)[C@@H](C(C)C)C(=O)O[C@@H]4C)c3nc-2c(C(=O)N[C@@H]2C(=O)N[C@H](C(C)C)C(=O)N3CCC[C@H]3C(=O)N(C)CC(=O)N(C)[C@@H](C(C)C)C(=O)O[C@@H]2C)c(N)c1=O` [Actinomycin D, actinomycin D] (I: T[dV]P[Sar][NMeV] / II: T[dV]P[Sar][NMeV]; ester I:1-I:C, II:1-II:C; linker I:N-II:N via Actinocin(9to1)) the “Induction Ratio” value [1] was 7.6 and the “activation of EGFP expression (in words)” value [1] was “strongly activated”.
In the case of `C[C@@]1(CO)[C@H](O)CC[C@@]2(C)[C@H]1CC[C@H]1C[C@@H]3C[C@@]12CC[C@]3(O)CO` [Aphidicolin, aphidicolin], the “Induction Ratio” value ([1]; 20 μM, 24 h exposure, GFP 4 days after treatment, relative to untreated control) is reported as 2.5 and the “activation of EGFP expression (in words)” value [1, 6] is reported as “relatively impotent”.
For `O=NN(CCCl)C(=O)NCCCl` [BCNU], the “Induction Ratio” value [1] was 4 and the “activation of EGFP expression (in words)” value [1] was “failed to produce significant activation”.
With `N.N.O=C([O-])C1(C(=O)[O-])CCC1.[Pt+2]` [Carboplatin, carboplatin] the IC50 [2, 7] was 10.7 ± 0.83 µM, the “GFP fold induction at 10 × IC50” value [1] was 23 ± 2.6 and the “Induction Ratio” value ([1]; 200 μM, 42 h exposure (so in the source), GFP 4 days after treatment, relative to untreated control) was 33. The “activation of EGFP expression (in words)” value [1, 6] was “strongly activated” and the “Relative EGFP activation potency at 10 × IC50” value [1, 8] was 750.4 ± 22.1 fold induction/ng Pt/ug DNA.
With `N.N.[Cl][Pt][Cl]` [Cisplatin] the IC50 [2, 7] was 4.2 ± 0.03 µM, the “fold increase in the fraction of EGFP-expressing cells” value ([3]; 5 mg/kg single i.p., 4 days, relative to untreated tumors) was 3.8 fold and the “fold increase in the fraction of cells expressing EGFP” value ([3]; 15 mg/kg single i.p., 4 days, relative to untreated tumors) was 29 fold and 29.2±6.2 fold. For the same molecule, the “tumor cells expressing EGFP” value ([3]; cisplatin 5 mg/kg single i.p.) was 0.49±0.5%, the “tumor cells expressing EGFP” value ([3]; cisplatin 15 mg/kg single i.p., untreated 0.13±0.02 %) was 3.8±0.8% and the LD10 [4] was 12 mg/kg. The “GFP fold induction at 10 × IC50” value [1] was 38 ± 3.2, the “Relative EGFP activation potency at 10 × IC50” value [1] was 825.0 ± 29.4 fold induction/ng Pt/ug DNA and the “Induction Ratio” value [1, 9] was 42. The “activation of EGFP expression (in words)” value [1, 6] was “strongly activated” and the “GADD153 mRNA level increase” value [5] was 3.0±0.4 fold.
For `COc1cccc2c1C(=O)c1c(O)c3c(c(O)c1C2=O)C[C@@](O)(C(=O)CO)C[C@@H]3O[C@H]1C[C@H](N)[C@H](O)[C@H](C)O1` [Doxorubicin, doxorubicin], the “Induction Ratio” value ([1]; 100 nM, 4 h exposure, GFP 4 days after treatment, relative to untreated control) was 2.4 and the “activation of EGFP expression (in words)” value [1, 6] was “relatively impotent”.
For `COc1cc([C@@H]2c3cc4c(cc3[C@@H](O[C@@H]3O[C@@H]5CO[C@@H](C)O[C@H]5[C@H](O)[C@H]3O)[C@H]3COC(=O)[C@H]23)OCO4)cc(OC)c1O` [Etoposide, etoposide], the “Induction Ratio” value ([1]; 5 μM, 4 h exposure, GFP 4 days after treatment, relative to untreated control) was 4 and the “activation of EGFP expression (in words)” value [1, 6] was “relatively impotent”.
In the case of `Nc1ccn([C@@H]2O[C@H](CO)[C@@H](O)C2(F)F)c(=O)n1` [Gemcitabine, gemcitabine], the “Induction Ratio” value [1, 10] is reported as 0.6 and the “activation of EGFP expression (in words)” value [1, 6] is reported as “relatively impotent”.
With `OO` [Hydrogen peroxide, hydrogen peroxide] the “Induction Ratio” value [1, 11] was 13 and the “activation of EGFP expression (in words)” value [1, 6] was “strongly activated”.
In the case of `CC(=O)[O][Pt]([NH2])([Cl])([Cl])([NH]C1CCCCC1)[O]C(C)=O` [JM216], the IC50 [2, 7] is reported as 4.5 ± 0.35 µM, the “GFP fold induction at 10 × IC50” value [1] is reported as 11 ± 3.2 and the “Induction Ratio” value ([1]; 150 μM, 1 h exposure, GFP 4 days after treatment, relative to untreated control) is reported as 43. The “activation of EGFP expression (in words)” value [1, 6] was “strongly activated” and the “Relative EGFP activation potency at 10 × IC50” value [1, 8] was 70.6 ± 20.5 fold induction/ng Pt/ug DNA.
With `O=C1[O][Pt]2([NH][C@@H]3CCCC[C@H]3[NH]2)[O]C1=O` [Oxaliplatin] the IC50 [2] was 5.1 ± 0.29 µM, the “GFP fold induction at 10 × IC50” value [1] was 100 ± 5.3 and the “Induction Ratio” value [1] was 105. The “Relative EGFP activation potency at 10 × IC50” value [1] was 5496.0 ± 655.6 fold induction/ng Pt/ug DNA and the “activation of EGFP expression (in words)” value [1] was “strongly activated”.
For `CC(=O)O[C@H]1C(=O)[C@@]2(C)[C@H]([C@H](OC(=O)c3ccccc3)[C@]3(O)C[C@H](OC(=O)[C@H](O)[C@@H](NC(=O)c4ccccc4)c4ccccc4)C(C)=C1C3(C)C)[C@]1(OC(C)=O)CO[C@@H]1C[C@@H]2O` [Paclitaxel, paclitaxel], the “Induction Ratio” value ([1]; 70 nM, 4 h exposure, GFP 4 days after treatment, relative to untreated control) was 2.8 and the “activation of EGFP expression (in words)” value [1, 6] was “relatively impotent”.
For `Cc1nc2ccc(CN(C)c3ccc(C(=O)N[C@@H](CCC(=O)O)C(=O)O)s3)cc2c(=O)[nH]1` [Raltitrexed], the “Induction Ratio” value [1, 10] was 0.6 and the “activation of EGFP expression (in words)” value [1, 6] was “relatively impotent”.
With `N[C@@H]1CCCC[C@H]1N.[Cl][Pt+2]([Cl])([Cl])[Cl]` [Tetraplatin, tetraplatin] the IC50 [2, 7] was 3.3 ± 0.17 µM, the “GFP fold induction at 10 × IC50” value [1] was 120 ± 7.8 and the “Induction Ratio” value [1, 9] was 143. For the same molecule, the “activation of EGFP expression (in words)” value [1, 6] was “strongly activated” and the “Relative EGFP activation potency at 10 × IC50” value [1, 8] was 10482.7 ± 516.9 fold induction/ng Pt/ug DNA.
In the case of `CC[C@@]1(O)C(=O)OCc2c1cc1n(c2=O)Cc2cc3c(CN(C)C)c(O)ccc3nc2-1` [Topotecan], the “Induction Ratio” value ([1]; 20 nM, 4 h exposure, GFP 4 days after treatment, relative to untreated control) is reported as 1.3 and the “activation of EGFP expression (in words)” value [1, 6] is reported as “relatively impotent”.
In the case of `N.N.[Cl][Pt+2][Cl]` [Transplatin, transplatin], the IC50 [2, 7] is reported as 379 ± 31.6 µM, the “GFP fold induction at 10 × IC50” value [1] is reported as 10 ± 2.0 and the “Induction Ratio” value [1, 11] is reported as 1. The “activation of EGFP expression (in words)” value [1, 6] was “failed to produce significant activation” and the “Relative EGFP activation potency at 10 × IC50” value [1, 8] was 41.3 ± 8.5 fold induction/ng Pt/ug DNA.
